The values that follow come from ChEMBL document CHEMBL1159277, “Sesquiterpene/quinol from a New Zealand liverwort, Riccardia crassa” (J Nat Prod, 1995).

The subject of experiment [1] is Trichophyton mentagrophytes. The experiment can be described thus: Antifungal activity against Trichophyton mentagrophytes at 60 ug/disk. The experiment is classed as functional, organism-based.
For the next experiment, the system named is P388. Put plainly: Cytotoxicity against mouse P388 cells. In kind it is functional, cell-based.
A further experiment deals with Candida albicans. The experiment can be described thus: Antifungal activity against Candida albicans at 60 ug/disk. In kind it is functional, organism-based.

Activity calls are given as the source filed them. No cut-off for these calls is given here.

What is called IC50 is the concentration needed to halve the response being measured. Low values mean greater potency in that assay, high ones weaker potency in that assay. `CC(C)=C/C=C/[C@@]1(C)CCC[C@]2(C)Oc3ccc(O)cc3C[C@@H]12` [RICCARDIPHENOL C]: the result (in experiment [1]; with Candida albicans) was inactive. Also, the IC50 in the experiment on P388 was above 25 µg/mL.
